Patent publication US9353101B2 (Merck Sharp & Dohme Corp., priority 2012, dated 2016)

The compounds below were run against T1, CETP (Homo sapiens (Human), UniProt P11597) (assay: Scintillation Proximity Assay (SPA) for CETP Activity). Details: 15 nM CETP, biotinylated LDL, 3H-cholesterol ester HDL; read-out: SPA IC50 (CETP Inhibition).
Type: biochemical
Description: Protocol: Scintillation Proximity Assay (SPA) for CETP Activity
First, low density lipoprotein (LDL) (Meridian) was biotinylated by incubating LDL with biotin for 1 hour on ice, after which it was dialyzed to remove free biotin. Then compounds at varying concentrations were incubated with 15 nM CETP (reagent production group, In Vitro Pharmacology, MRL Rahway) and 50 ug/ml of the biotinylated LDL in 50 mM HEPES, 150 mM NaCl, pH 7.4, for 1 hour at 37° C. The reaction was started by adding ^3H-cholesterol ester high density lipoprotein (HDL) (American Radiochemicals Corp) at a concentration of ˜0.6 nM. The reaction proceeded for 2 hours at 37° C., after which time it was quenched by the addition of 12% acetic acid. PVT streptavadin-coated scintillation proximity beads, which had been brought to room temperature, were then added at a concentration of 4 mg/ml. The assay was then mixed and counted after one half hour in a Microbeta plate reader.
Target sequence in this assay (P11597 18-493): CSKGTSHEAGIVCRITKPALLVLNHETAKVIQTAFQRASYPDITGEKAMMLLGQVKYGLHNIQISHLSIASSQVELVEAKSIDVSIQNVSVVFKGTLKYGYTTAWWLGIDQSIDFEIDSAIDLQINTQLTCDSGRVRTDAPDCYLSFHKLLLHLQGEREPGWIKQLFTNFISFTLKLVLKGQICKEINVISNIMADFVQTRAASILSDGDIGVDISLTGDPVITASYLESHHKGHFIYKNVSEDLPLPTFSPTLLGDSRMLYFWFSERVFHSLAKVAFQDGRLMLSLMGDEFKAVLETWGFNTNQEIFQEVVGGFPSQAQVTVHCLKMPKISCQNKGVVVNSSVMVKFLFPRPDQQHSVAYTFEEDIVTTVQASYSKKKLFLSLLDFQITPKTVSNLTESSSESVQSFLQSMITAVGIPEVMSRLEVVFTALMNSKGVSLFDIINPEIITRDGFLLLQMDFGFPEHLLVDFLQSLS
For `COc1ncc(C(C)C)cc1-c1cnc(N2CC(F)C2)nc1CN1C(=O)O[C@H](c2cc(C(F)(F)F)cc(C(F)(F)F)c2)[C@@H]1C` [Example 2, (4S,5R)-5-[3,5-Bis(trifluoromethyl)phenyl]-3-{[2-(3-fluoroazetidin-1-yl)-5-(5-isopropyl-2-methoxypyridin-3-yl)pyrimidin-4-yl]methyl}-4-methyl-1,3-oxazolidin-2-one], the IC50 was 11 nM.
`COc1ncc(C2CC2)cc1-c1cnc(N2CCOCC2)nc1CN1C(=O)O[C@H](c2cc(C(F)(F)F)cc(C(F)(F)F)c2)[C@@H]1C` [Example 12, (4S,5R)-5-(3,5-Bis(trifluoromethyl)phenyl)-3-((5-(5-cyclopropyl-2-methoxypyridin-3-yl)-2-morpholinopyrimidin-4-yl)methyl)-4-methyloxazolidin-2-one] showed an IC50 of 530 nM.
Compound `COc1ncc(C2CC2)cc1-c1cnc(N2CC(F)C2)nc1CN1C(=O)O[C@H](c2cc(C(F)(F)F)cc(C(F)(F)F)c2)[C@@H]1C` [Example 5] has an IC50 of 34 nM.
In the case of `COc1ncc(C(C)C)cc1-c1cnc(N2CCOCC2)nc1CN1C(=O)O[C@H](c2cc(C(F)(F)F)cc(C(F)(F)F)c2)[C@@H]1C` [Example 15, (4S,5R)-5-[3,5-Bis(trifluoromethyl)phenyl]-3-{[5-(5-isopropyl-2-methoxypyridin-3-yl)-2-(morpholin-4-yl)pyrimidin-4-yl]methyl}-4-methyl-1,3-oxazolidin-2-one], the IC50 is reported as 229 nM.
With `COc1ncc(-c2cnn(C)c2)cc1-c1cnc(N2CC(F)C2)nc1CN1C(=O)O[C@H](c2cc(C(F)(F)F)cc(C(F)(F)F)c2)[C@@H]1C` [Example 4] the IC50 was 137 nM.
`COc1ncc(Cl)cc1-c1cnc(N2CC(F)C2)nc1CN1C(=O)O[C@H](c2cc(F)cc(F)c2)[C@@H]1C` [Example 13, (4S,5R)-3-{[5-(5-Chloro-2-methoxypyridin-3-yl)-2-(3-fluoroazetidin-1-yl)pyrimidin-4-yl]methyl}-5-(3,5-difluorophenyl)-4-methyl-1,3-oxazolidin-2-one] was tested, and the IC50 was 728 nM.

These compounds were tested against T1, CETP (assay: In vitro radioactive assay of CETP-catalyzed CE and TG transfer (RTA assay), 95% human serum). Details: RTA assay in 95% human serum; read-out: RTA IC50 (CETP Inhibition).
Type: biochemical
Description: In Vitro Radioactive Assays of CETP-Catalyzed CE and TG Transfer (RTA Assay)
Reagents and sources are: [3H] cholesteryl oleate (GE #TRK.886), [3H] Triolein (Perkin-Elmer NET-431), Butylated hydroxyl toluene (Aldrich, #D4740-4), DOPC (Sigma, # P6354), Sodium Bromide (Fisher scientific #S255-500), PEG 8000 (Fisher, #BP233-1), and human HDL (Intracel Corp #RP-036).
An in vitro assay for determining IC50's to identify compounds that inhibit CETP transfer activity is performed based on a modification of a published method (Morton and Zilversmit, (1981) A plasma inhibitor of triglyceride and cholesteryl ester transfer activities, J. Biol. Chem. 256(23), 11992-11995). The ability of inhibitors to alter CETP activity is performed using two different assays: one using recombinant CETP and one using an endogenous plasma source of CETP. Both assays measure the transfer of [3H] cholesteryl oleate or [3H] triolein from exogenous LDL to HDL.
Radiolabeled donor particles are generated by first combining 100 μl of 200 μM butylated hydroxyl toluene in CHCl3, 216 μL of 21.57 mM DOPC in EtOH, and either 500 μCi [3H]-triolein (Perkin Elmer #NET-431) or 500 μCi [3H]-cholesteryl oleate (GE #TRK886) in a glass tube. Reagents are mixed, dried under nitrogen, and then resuspended in 2 mL of 50 mM Tris, 27 μM EDTA at pH 7.4. After a brief vortex, the solution is sonicated until clear and mixed with 20 mL of fresh human serum. The mixture is incubated overnight at 37° C. The [3H] labeled LDL substrate is separated at 1.063 g/ml density by sequential ultracentrifugal flotation in NaBr according to the method by (Havel, Eder et al. 1955; Chapman, Goldstein et al. 1981). Once isolated the particles are dialyzed 3× in CETP buffer (50 mM Tris, pH 7.4, 100 mM NaCl, 1 mM EDTA). Human HDL is purchased from Intracel and used as the acceptor particles.
Transfer assays are performed in a 96 or 384-well v-bottom polypropylene plate. For the RTA using recombinant CETP (2% RTA), an assay cocktail is prepared with the final concentrations 128 μg/mL HDL, 20 nM rCETP, 2% human serum, and 1×CETP buffer. 1 μL of each test compound diluted in DMSO is added to 47 μL of assay cocktail per well and incubated at 37° C. for 1 hour. To initiate the transfer reaction, 2 μL radiolabeled LDL is added. After an additional 60 min of incubation at 37° C., the transfer action is terminated by precipitation of LDL with an equal volume of 20% W/V PEG 8000. The plates are centrifuged at 2000 rpm for 30 minutes at 4° C. A 40 μL aliquot of the HDL-containing supernatant is transferred to a Packard Optiplate™ with 200 μL of MicroScint™ 20. After mixing, plates are counted by liquid scintillation. Counts present in the supernatant for blanks (wells containing only HDL acceptor, CETP buffer and DMSO) are subtracted from those containing test compounds and used to correct for non-specific transfer.
For the transfer assay using endogenous CETP from serum (95% RTA), the same procedure is used except that human serum is added such that a final concentration of serum of 95% of the total assay volume is achieved, yielding a concentration of approximately 15 nM endogenous CETP in the assay. This is then combined with HDL and CETP buffer and the reaction proceeds as above and is terminated as described.
Comparison of the counts of samples with inhibitors to an uninhibited (DMSO only) positive control yield a percent inhibition. A plot of percent inhibition vs. log of inhibitor concentration, fit to a Sigmoidal 4 parameter equation is used to calculate IC50.
Starting materials are commercially available or are made using known procedures or as shown below. The examples may be synthesized using the general schemes provided below. The data reported for the examples below were obtained using the RTA assay in 95% human serum.
Target sequence in this assay (P11597 18-493 limits assumed): as the sequence (P11597 18-493) above
`COc1ncc(-c2c(C)cc(C(=O)O)cc2C)cc1-c1cnc(N2CCOCC2)nc1CN1C(=O)O[C@H](c2cc(C(F)(F)F)cc(C(F)(F)F)c2)[C@@H]1C` [Example 34, 4-{5-[4-({(4S,5R)-5-[3,5-Bis(trifluoromethyl)phenyl]-4-methyl-2-oxo-1,3-oxazolidin-3-yl}methyl)-2-(morpholin-4-yl)pyrimidin-5-yl]-6-methoxypyridin-3-yl}-3,5-dimethylbenzoic acid] was tested, and the IC50 was 10 nM.
Compound `COc1ncc(-c2ccc(C(=O)Nc3nnn[nH]3)cc2C)cc1-c1cnc(N2CC(F)C2)nc1CN1C(=O)O[C@H](c2cc(C(F)(F)F)cc(C(F)(F)F)c2)[C@@H]1C` [Example 37, 4-{5-[4-({(4S,5R)-5-[3,5-Bis(trifluoromethyl)phenyl]-4-methyl-2-oxo-1,3-oxazolidin-3-yl}methyl)-2-(3-fluoroazetidin-1-yl)pyrimidin-5-yl]-6-methoxypyridin-3-yl}-3-methyl-N-(1H-tetrazol-5-yl)benzamide] has an IC50 of 10 nM.
For `COc1ncc(-c2c(C)nn(C)c2C)cc1-c1cnc(N2CC(F)C2)nc1CN1C(=O)O[C@H](c2cc(C(F)(F)F)cc(C(F)(F)F)c2)[C@@H]1C` [Example 6], the IC50 was 3 nM.
Compound `COc1ncc(-c2c(C)n[nH]c2C)cc1-c1cnc(N2CC(F)(F)C2)nc1CN1C(=O)O[C@H](c2cc(C(F)(F)F)cc(C(F)(F)F)c2)[C@@H]1C` [Example 23, (4S,5R)-5-[3,5-Bis(trifluoromethyl)phenyl]-3-({2-(3,3-difluoroazetidin-1-yl)-5-[5-(3,5dimethyl-1H-pyrazol-4-yl)-2-methoxypyridin-3-yl]pyrimidin-4-yl}methyl)-4-methyl-1,3-oxazolidin-2-one] has an IC50 of 15 nM.
`COc1ncc(-c2c(C)nn(CC(N)=O)c2C)cc1-c1cnc(N2CC(F)C2)nc1CN1C(=O)O[C@H](c2cc(C(F)(F)F)cc(C(F)(F)F)c2)[C@@H]1C` [Example 22] was tested, and the IC50 was 22 nM.
With `COc1ncc(-c2c(C)n[nH]c2C)cc1-c1cnc(N2CCCC2)nc1CN1C(=O)O[C@H](c2cc(C(F)(F)F)cc(C(F)(F)F)c2)[C@@H]1C` [Example 25] the IC50 was 20 nM.
`COc1ncc(C(C)C)cc1-c1cnc(N2CCC2)nc1CN1C(=O)O[C@H](c2cc(C(F)(F)F)cc(C(F)(F)F)c2)[C@@H]1C` [Example 31] showed an IC50 of 5 nM.
Compound `COc1ncc(CCC(=O)O)cc1-c1cnc(N2CC(F)C2)nc1CN1C(=O)O[C@H](c2cc(C(F)(F)F)cc(C(F)(F)F)c2)[C@@H]1C` [Example 8] has an IC50 of 92 nM.
For `COc1ncc(C(C)(O)C(F)(F)F)cc1-c1cnc(N2CC(F)C2)nc1CN1C(=O)O[C@H](c2cc(C(F)(F)F)cc(C(F)(F)F)c2)[C@@H]1C` (mixture of isomers) [Example 16, (4S,5R)-5-[3,5-Bis(trifluoromethyl)phenyl]-3-{[2-(3-fluoroazetidin-1-yl)-5-{2-methoxy-5-[(2RS)-1,1,1-trifluoro-2-hydroxypropan-2-yl]pyridin-3-yl}pyrimidin-4-yl]methyl}-4-methyl-1,3-oxazolidin-2-one], the IC50 was 14 nM.
`COc1ncc(-c2c(C)cc(C(=O)O)cc2C)cc1-c1cnc(N2CC(F)C2)nc1CN1C(=O)O[C@H](c2cc(C(F)(F)F)cc(C(F)(F)F)c2)[C@@H]1C` [Example 32, 4-{5-[4-({(4S,5R)-5-[3,5-Bis(trifluoromethyl)phenyl]-4-methyl-2-oxo-1,3-oxazolidin-3-yl}methyl)-2-(3-fluoroazetidin-1-yl)pyrimidin-5-yl]-6-methoxypyridin-3-yl}-3,5-dimethylbenzoic acid] was tested, and the IC50 was 7 nM.
Work on `COc1ncc(-c2c(C)n[nH]c2C)cc1-c1cnc(N2CCC2)nc1CN1C(=O)O[C@H](c2cc(C(F)(F)F)cc(C(F)(F)F)c2)[C@@H]1C` [Example 27] yielded an IC50 of 19 nM.
For `COc1ncc(-c2c(C)nn(CC#N)c2C)cc1-c1cnc(N2CC(F)C2)nc1CN1C(=O)O[C@H](c2cc(C(F)(F)F)cc(C(F)(F)F)c2)[C@@H]1C` [Example 21], the IC50 was 18 nM.
For `COc1ncc(-c2ccc(C(=O)O)cc2C)cc1-c1ccc(N2CCOCC2)nc1CN1C(=O)O[C@H](c2cc(C(F)(F)F)cc(C(F)(F)F)c2)[C@@H]1C` [Example 56], the IC50 was 9 nM.
`COc1ncc(-c2ccc(C(=O)Nc3nnn[nH]3)cc2C)cc1-c1cnc(N2CCOCC2)nc1CN1C(=O)O[C@H](c2cc(C(F)(F)F)cc(C(F)(F)F)c2)[C@@H]1C` [Example 41, 4-{5-[4-({(4S,5R)-5-[3,5-Bis(trifluoromethyl)phenyl]-4-methyl-2-oxo-1,3-oxazolidin-3-yl}methyl)-2-(morpholin-4-yl)pyrimidin-5-yl]-6-methoxypyridin-3-yl}-3-methyl-N-(1H-tetrazol-5-yl)benzamide] gave an IC50 of 11 nM.
